A short description of series [1]: MTBE loss in abiotic controls (methanogenic and sulfate-reducing media). The format is physicochemical. As for the experimental part: To examine the carbon isotope fractionation during anaerobic MTBE degradation, eight batch experiments are set up. Four serum bottles, each containing 100 ml of sulfate-reducing AK enrichment, are prepared as described above. Sodium molybdate (20 mM), a specific inhibitor of sulfate reduction, is added to two sulfate-reducing AK cultures. The two remaining cultures are kept under conditions promoting sulfate reduction. From the CC enrichment, two of the 100-ml cultures are prepared for each methanogenic and sulfate-reducing enrichment. Each culture had been enriched individually from separate CC sediment microcosms and had never been combined. Methanogenic and sulfate-reducing media are used as abiotic controls. Anaerobic MTBE stock solution is added to all live enrichments and abiotic controls to a final concentration of 25 to 30 mg liter^−1. […] The headspace MTBE concentrations of the cultures are monitored over time. […]
The concentration of MTBE is determined by a static headspace method. A 100-μl headspace sample is analyzed for MTBE with a Hewlett-Packard 5890 gas chromatograph (GC) equipped with a DB1 column (0.53 mm by 30 m; J&W Scientific, Folsom, Calif.) and a flame ionization detector with He as the carrier gas. […] For quantification, external aqueous standards of 3.0, 9.0, 15.0, and 30.0 mg liter^−1 for each compound are used. […]

The subject of series [2] is MTBE-utilizing culture. Nature of the series: Effect of methoxylated aromatic compounds as co-substrates on MTBE utilization. Type of series: cell-based. The conditions noted are these: for lag period of MTBE utilization: 80 μM co-substrate added with MTBE; for effect on MTBE utilization/degradation rate: 80 μM co-substrate, first spiking; for effect on MTBE degradation rate: repeated spiking with MTBE + O-methyl aryl ether.

Series [3] has as its system Coronado Cays sediment microcosms (methanogenic and sulfate-reducing). Nature of the series: Development of MTBE-degrading enrichments from Coronado Cays sediment microcosms. The conditions noted are these: sediment with 5 mM lactate, sodium molybdate present. Type of series: cell-based.
The test system of series [4] is sulfate-reducing Arthur Kill enrichment. Nature of the series: Anaerobic MTBE biodegradation and carbon isotope fractionation, batch experiment. The format is cell-based. The conditions noted are these: 20 mM sodium molybdate, inhibitor of sulfate reduction.
The subject of series [5] is MTBE-utilizing culture. Nature of the series: MTBE utilization in the presence of various concentrations of syringate. Type of series: cell-based.

“Also recorded” adds a separate entry of the source. Where only a bound is given, the exact number is not on record here.

As for `COC(C)(C)C` [MTBE, Methyl tert-butyl ether], the “MTBE loss in abiotic controls” value in series [1] (both CC experiments, over 60 days) is given as less than 10%. The “MTBE lost in abiotic controls” value in series [1] (end of the Arthur Kill experiment) is given as 13%.
On to `COc1ccccc1O` [guaiacol], for which, in series [2], the “lag period of MTBE utilization” value is on record as “comparable to the culture receiving MTBE alone”, the “effect on MTBE utilization/degradation rate” value was “adverse effect on MTBE degradation; also recorded: more severe than that of vanillate; also recorded: decrease” and the “effect on MTBE degradation rate” value is listed as “increased rate of degradation”.
As for `[Na+].[Na+].[O]=[Mo](=[O])([O-])[O-]` [molybdate, sodium molybdate], in series [3], the “effect on sulfate reduction” value is on record as “No significant loss of sulfate”. The “effect on MTBE utilization rate” value in series [4] is given as “decreases drastically”.
For the molecule `COc1cc(C(=O)O)cc(OC)c1O` [syringate, syringic acid], the “effect on MTBE utilization” value is “enhances MTBE utilization” in series [5] (50 μM syringate); “enhances MTBE utilization” in series [5] (100 μM syringate); “slightly increases MTBE-degrading activity” in series [5] (500 μM syringate); “slight inhibitory effect on MTBE utilization” in series [5] (750 μM syringate); “limited MTBE utilization” in series [5] (1000 μM syringate). Further, the “time in which MTBE is utilized” value in series [5] (50 μM syringate as co-substrate) is “less than 80 days”. For the same molecule, the “lag period of MTBE utilization” value in series [2] is reported as 55 days. The “effect on MTBE utilization/degradation rate” value is “enhances the MTBE utilization rate” in series [2] and “increased the degradation rate” in series [2] (listed as syringic acid). For the same molecule, in series [2], the “effect on MTBE degradation rate” value was “increased rate of degradation”.
On to `COc1cc(C(=O)O)ccc1O` [vanillate, vanillic acid], for which, in series [2], the “lag period of MTBE utilization” value is reported as “comparable to the culture receiving MTBE alone”, the “effect on MTBE utilization/degradation rate” value is reported as “adverse effect on MTBE degradation; also recorded: decrease” and the “effect on MTBE degradation rate” value is reported as “increased rate of degradation”.

The values above are taken from patent US7867750B2, “Method for anaerobic degradation of fuel oxygenates and similar compounds” (Rutgers, The State University of New Jersey, priority 2006, dated 2011).
